Measurements published in article PMC3598007, “Interactions of zebrafish peptide YYb with the neuropeptide Y-family receptors Y4, Y7, Y8a, and Y8b” (Frontiers in Neuroscience, 2013).
“Also recorded” adds a separate entry of the source. No end group written: not given here.

Tests used:
Y2 [1] = conditions: mammals; PYY3-36 formed by dipeptidyl peptidase IV cleavage; ref Mentlein et al., 1993; cited from earlier work
From the text: Studies of how NPY affects appetite have been conducted in several fish species (Narnaware et al., [2000]; Narnaware and Peter, [2001]) and the NPY system seems to influence food intake, although the orexigenic receptor subtypes have not been identified in the fish species studied. The receptors that in mammals are involved in inhibition of appetite have been known in zebrafish for several years and there have been some studies investigating how PYY can inhibit feeding. In mammals it seems like the main inhibitory action on appetite is performed by PYY3-36. This peptide is the result of cleava ...

Y4 = conditions: PP, PYY and NPY compared, ref Lundell et al., 1995, 2002; cited from earlier work
From the text: Functional and evolutionary studies in mammals have shown that their Y4 receptor has evolved a partnership with pancreatic polypeptide (PP). It should be stressed that PYYb is not the teleost fish ortholog of PP, instead the latter is a tandem duplicate of PYY that probably took place early in the tetrapod lineage. […] Thus, the PP-Y4 preference seems to have evolved in mammals (Lundell et al., [1995], [2002]). One aim of the present study was to investigate ...

Y4(Ya) = test: Competition binding with 125I-pPYY, zebrafish Y4 receptor (HEK cells); conditions: transiently expressed in HEK cells, competition with 125I-pPYY, 25 mM HEPES pH 7.4, 2.5 mM CaCl2, 1 mM MgCl2, bacitracin, 2 h incubation, mean ± SEM, n = 3 (zfNPY), 3 (zfPYYa), 3 (zfPYYb)
From the text: (§1) The zebrafish receptors have previously been cloned and expressed in cell lines by our laboratory. The zebrafish Y8a and Y8b receptors were inserted in a pTEJ-8 vector and stably expressed in CHO-cells (Ringvall et al., [1997]; Berglund et al., [2000]). Y7 has been inserted in a pCEP4 vector and semi-stably expressed in HEK 293-EBNA cells (Fredriksson et al., [2004]). The zebrafish Y4 receptor coding region was inserted in a pTEJ-8 vector (Starback et al., [1999]) and transient expressed in HEK cells. The cell-lines were grown according to the recommendations of the manufacturer. Ninety percent of the confluent cells were harvested and mixed with 100 μl 25 mM HEPES buffer (pH 7.4 and 2.5 mM CaCl2 and 1 mM MgCl2) and stored at −80°C.
(§2) Thawed aliquots of transfected cells were mixed with 1 ml 25 mM HEPES buffer (pH 7.4, 2.5 mM CaCl2, 1 mM MgCl2 and 0.2 g/l bacitracin). The samples were homogenized and another 1 ml buffer was added. ^125I-pPYY was used as radioligand in all experiments, radioligand, and unlabeled ligands (serial concentrations of zfNPY, zfPYYa, and zfPYYb respectively) and cells were mixed at the proportion 2:1:1 in 100 μl reactions followed by 2 h incubation. […] The radioactivity was measured using a Wallac 1450 Betaplate counter and the results were analyzed using Prism 4.0 software package (GraphPad, San Diego, CA, USA). […]

Y7 = test: Competition binding with 125I-pPYY, zebrafish Y7 receptor (HEK 293-EBNA cells); conditions: for Ki: zebrafish Y7, semi-stably expressed in HEK 293-EBNA cells, competition with 125I-pPYY, 25 mM HEPES pH 7.4, 2.5 mM CaCl2, 1 mM MgCl2, bacitracin, 2 h incubation, mean ± SEM, n = 5 (zfNPY), 3 (zfPYYa), 5 (zfPYYb)
From the text: as §1
Thawed aliquots of transfected cells were mixed with 1 ml 25 mM HEPES buffer (pH 7.4, 2.5 mM CaCl2, 1 mM MgCl2 and 0.2 g/l bacitracin). The samples were homogenized and another 1 ml buffer was added. ^125I-pPYY was used as radioligand in all experiments, radioligand, and unlabeled ligands (serial concentrations of zfNPY, zfPYYa, and zfPYYb respectively) and cells were mixed at the proportion 2:1:1 in 100 μl reactions followed by 2 h incubation. The zebrafish NPY (zfNPY) and PYYa (zfPYYa) were synthesized at Eli Lilly and Company. The zebrafish PYYb (zfPYYb) was supplied in a crude form by GL Biochem Shanghai and purified as previously described (Fredriksson et al., [2006]). The incubation was terminated by rapid filtration through GF/C filters pre-soaked in 0.3% polyethyleneimin, using a TOMTEC cell harvester (Orange, CT, USA). The filters were washed with 50 mM Tris-HCl (pH 7.4) and dried at 50°C for 30 min. Filters were treated with MeltiLex A melt on scintillator sheets (Perkin Elmer, Boston, MA, USA). The radioactivity was measured using a Wallac 1450 Betaplate counter and the results were analyzed using Prism 4.0 software package (GraphPad, San Diego, CA, USA). The pKi values were compared to each other using One-Way ANOVA followed by Tukey-Kramer Multiple Comparison Test (GraphPad, San Diego, CA, USA).
The zebrafish receptors were expressed in mammalian cells and the membrane fraction was used for binding experiments. Competition binding experiments were performed using the three endogenous ligands NPY, PYYa and PYYb in competition with iodinated porcine PYY. The mature 36 amino acid PYYb peptide has fourteen differences compared to NPY and seven when compared with PYYa (see Figure 1). PYYa differs from NPY at nine positions. Thus, PYYb has clearly changed more than PYYa after duplication of their common ancestral gene.

Y8a (Yc) = test: Competition binding with 125I-pPYY, zebrafish Y8a receptor (CHO-cells)
From the text: as §1, §2

Y8b (Yb) = test: Competition binding with 125I-pPYY, zebrafish Y8b receptor (CHO-cells); conditions: stably expressed in CHO-cells, competition with 125I-pPYY, 25 mM HEPES pH 7.4, 2.5 mM CaCl2, 1 mM MgCl2, bacitracin, 2 h incubation, mean ± SEM, n = 4 (zfNPY), 3 (zfPYYa), 4 (zfPYYb)
From the text: as §1, §2

Y2 [2] = conditions: zebrafish Y2, ref Fredriksson et al., 2006, cited from earlier work
From the text: The neuropeptide Y (NPY) system influences numerous physiological functions including feeding behavior, endocrine regulation, and cardiovascular regulation. In jawed vertebrates it consists of 3–4 peptides and 4–7 receptors. Teleost fishes have unique duplicates of NPY and PYY as well as the Y8 receptor. In the zebrafish, the NPY system consists of the peptides NPYa, PYYa, and PYYb (NPYb appears to have been lost) and at least seven NPY receptors: Y1, Y2, Y2-2, Y4, Y7, Y8a, and Y8b. Previously PYYb binding has been reported for Y2 and Y2-2. To search for peptide-receptor preferences, we have i ... || The main objective of this study was to examine the affinity of PYYb for the Y4, Y7, Y8a, and Y8b receptors, and to compare it to the other two endogenous peptides, NPY and PYYa. […] The zebrafish Y7 receptor is 50% identical to zebrafish Y2 and PYYa has low affinity for both of these. This observation will be interesting to correlate with the physiological roles of the peptides and receptors in z ... || (+ 1 further places)

PYY3-36
selectivity for Y2 over the other receptor subtypes (Y2 [1]): selectivity for Y2 over the other receptor subtypes

chicken PP: chicken pancreatic polypeptide (GPSQPTYPGDDAPVEDLIRFYNDLQQYLNVVTRHRY; ends and bridges not checked; UniProt P68248 26-61, looked up)
affinity for chicken Y4 (Y4): equal affinities

zfNPY: endogenous zebrafish neuropeptide Y, synthesized at Eli Lilly and Company
Ki (Y4(Ya)): 0.033 ± 0.005 nM
Ki (Y7): 0.57 ± 0.16 nM
Ki (Y8a (Yc); zebrafish Y8a (Yc), stably expressed in CHO-cells, competition with 125I-pPYY, 25 mM HEPES pH 7.4, 2.5 mM CaCl2, 1 mM MgCl2, bacitracin, 2 h incubation, mean ± SEM, n = 7 (zfNPY), 6 (zfPYYa), 4 (zfPYYb)): 0.21 ± 0.07 nM
Ki (Y8b (Yb)): 0.13 ± 0.04 nM

zfPYYa: endogenous zebrafish PYYa, synthesized at Eli Lilly and Company
Ki (Y4(Ya)): 0.034 ± 0.009 nM
Ki (Y7): 1.82 nM
fold lower affinity for Y7 than NPY and PYYb (Y7; zebrafish Y7, PYYa vs NPY and PYYb): 3 fold
affinity for Y7 compared with NPY and PYYb (Y7; zebrafish Y7, pKi compared by One-Way ANOVA, Tukey-Kramer): significantly lower affinity; also recorded: low affinity
affinity for Y8a compared with the other two peptides (Y8a (Yc); zebrafish Y8a, PYYa vs NPY and PYYb): slightly lower than the other two peptides
Ki (Y8b (Yb)): 0.25 ± 0.12 nM
affinity for Y2 (Y2 [2]; previously reported): 3 nM
preference of Y2 / affinity for Y2 (Y2 [2]): low affinity
